Experimental findings from US20240208992A1, “MACROCYCLES AS CFTR MODULATORS” (Idorsia Pharmaceuticals Ltd, priority 2021, published 2024) are described below.

The assay addresses human F508del-CFTR (Homo sapiens, UniProt P13569, DEL508-508). The assay is described as follows: F508del-CFTR cell surface expression (corrector activity), DiscoveRx ß-galactosidase complementation chemiluminescence assay in recombinant U2OS cell line.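 For all read-outs here: U2OS cells co-expressing ProLink-tagged F508del-CFTR and a membrane-anchored enzyme acceptor, where more surface CFTR restores β-galactosidase activity measured by chemiluminescence.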 The note with it: U2OS cell line, 16h compound incubation; for EC50: EC50, F508del-CFTR cell surface expression, geomean values; for Emax: U2OS, in relation to the Emax of the corrector lumacaftor (=100%), arithmetic mean values.

human F508del-CFTR, sequence (P13569 with tags, fused parts or gaps DEL508-508): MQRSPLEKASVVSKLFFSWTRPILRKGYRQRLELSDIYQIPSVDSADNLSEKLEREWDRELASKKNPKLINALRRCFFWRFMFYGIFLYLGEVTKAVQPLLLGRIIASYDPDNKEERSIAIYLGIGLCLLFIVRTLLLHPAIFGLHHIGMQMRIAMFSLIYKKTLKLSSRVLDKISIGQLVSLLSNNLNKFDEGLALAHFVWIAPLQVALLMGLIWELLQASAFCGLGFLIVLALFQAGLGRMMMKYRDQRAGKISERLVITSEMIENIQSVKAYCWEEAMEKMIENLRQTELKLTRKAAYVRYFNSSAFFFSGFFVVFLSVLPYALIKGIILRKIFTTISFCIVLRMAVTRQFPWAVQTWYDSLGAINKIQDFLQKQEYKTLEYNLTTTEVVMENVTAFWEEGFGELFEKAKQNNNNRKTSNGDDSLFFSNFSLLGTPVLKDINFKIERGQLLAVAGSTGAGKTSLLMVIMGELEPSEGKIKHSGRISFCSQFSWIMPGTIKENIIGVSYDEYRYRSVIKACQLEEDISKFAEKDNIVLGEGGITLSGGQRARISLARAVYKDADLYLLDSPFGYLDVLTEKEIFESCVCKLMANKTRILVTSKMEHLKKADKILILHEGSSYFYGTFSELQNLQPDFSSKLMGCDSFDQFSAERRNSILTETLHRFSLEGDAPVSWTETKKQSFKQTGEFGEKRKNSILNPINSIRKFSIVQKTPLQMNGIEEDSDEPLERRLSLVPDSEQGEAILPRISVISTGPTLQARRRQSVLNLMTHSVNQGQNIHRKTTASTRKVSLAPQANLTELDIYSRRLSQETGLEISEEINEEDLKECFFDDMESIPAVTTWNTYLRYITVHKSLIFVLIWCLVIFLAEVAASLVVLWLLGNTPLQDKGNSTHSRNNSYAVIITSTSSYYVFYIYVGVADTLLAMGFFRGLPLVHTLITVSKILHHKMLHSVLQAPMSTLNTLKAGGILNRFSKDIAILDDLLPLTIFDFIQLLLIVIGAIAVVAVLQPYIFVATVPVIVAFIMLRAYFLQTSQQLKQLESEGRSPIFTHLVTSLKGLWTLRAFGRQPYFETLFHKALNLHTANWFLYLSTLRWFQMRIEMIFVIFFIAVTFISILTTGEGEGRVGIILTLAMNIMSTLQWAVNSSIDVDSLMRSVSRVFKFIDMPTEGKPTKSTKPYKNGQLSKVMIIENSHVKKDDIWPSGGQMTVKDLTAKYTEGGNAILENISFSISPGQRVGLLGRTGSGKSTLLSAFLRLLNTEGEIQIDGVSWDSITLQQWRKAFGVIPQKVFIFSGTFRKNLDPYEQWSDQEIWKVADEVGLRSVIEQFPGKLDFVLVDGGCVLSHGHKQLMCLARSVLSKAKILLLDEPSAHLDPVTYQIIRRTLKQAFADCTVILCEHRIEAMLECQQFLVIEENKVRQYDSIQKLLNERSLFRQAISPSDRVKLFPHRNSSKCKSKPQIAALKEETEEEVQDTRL

Regarding `CCc1nc(CCNC(=O)[C@@H]2CC(=O)N(C)[C@@H](CC(C)C)C(=O)N(C)C3(CC3)C(=O)N[C@H](Cc3ccccc3)COc3cnc4ccccc4c3C(=O)N2)no1` [Example 114, (3′S,7′S,13′R)-13′-benzyl-N-(2-(5-ethyl-1,2,4-oxadiazol-3-yl)ethyl)-7′-isobutyl-6′,9′-dimethyl-1′,5′,8′,11′-tetraoxo-2′,3′,4′,5′,6′,7′,8′,9′,11′,12′,13′,14′-dodecahydro-1′H-spiro[cyclopropane-1,10′-[1]oxa[4,7,10,14]tetraazacycloheptadecino[17,16-c]quinoline]-3′-carboxamide], the 50% effective concentration (EC50) (commonly the midpoint of the concentration-response curve) came to 0.924 µM and the maximum response (Emax) (commonly the size of the effect at its maximum, as opposed to the concentration needed) was 220%.
For `CC(C)C[C@H]1C(=O)N(C)C2(CC2)C(=O)N[C@H](Cc2ccccc2)COc2cnc3ccccc3c2C(=O)N[C@H](C(=O)NCCc2noc(C3CC3)n2)CC(=O)N1C` [Example 115, (3′S,7′S,13′R)-13′-benzyl-N-(2-(5-cyclopropyl-1,2,4-oxadiazol-3-yl)ethyl)-7′-isobutyl-6′,9′-dimethyl-1′,5′,8′,11′-tetraoxo-2′,3′,4′,5′,6′,7′,8′,9′,11′,12′,13′,14′-dodecahydro-1′H-spiro[cyclopropane-1,10′-[1]oxa[4,7,10,14]tetraazacycloheptadecino[17,16-c]quinoline]-3′-carboxamide] the same measures were 0.38 µM and 250%.
`CC(C)C[C@H]1C(=O)N(C)C2(CC2)C(=O)N[C@H](Cc2ccccc2)COc2cnc3ccccc3c2C(=O)N[C@H](C(=O)NCCc2noc(C(C)(C)C)n2)CC(=O)N1C` [Example 116, (3′S,7′S,13′R)-13′-benzyl-N-(2-(5-(tert-butyl)-1,2,4-oxadiazol-3-yl)ethyl)-7′-isobutyl-6′,9′-dimethyl-1′,5′,8′,11′-tetraoxo-2′,3′,4′,5′,6′,7′,8′,9′,11′,12′,13′,14′-dodecahydro-1′H-spiro[cyclopropane-1,10′-[1]oxa[4,7,10,14]tetraazacycloheptadecino[17,16-c]quinoline]-3′-carboxamide]: the EC50 came to 0.554 µM and the Emax was found to be 253%.
Turning to `Cc1cc(CCNC(=O)[C@@H]2CC(=O)N(C)[C@@H](CC(C)C)C(=O)N(C)C3(CC3)C(=O)N[C@H](Cc3ccccc3)COc3cnc4ccccc4c3C(=O)N2)no1` [Example 117, (3′S,7′S,13′R)-13′-benzyl-7′-isobutyl-6′,9′-dimethyl-N-(2-(5-methylisoxazol-3-yl)ethyl)-1′,5′,8′,11′-tetraoxo-2′,3′,4′,5′,6′,7′,8′,9′,11′,12′,13′,14′-dodecahydro-1′H-spiro[cyclopropane-1,10′-[1]oxa[4,7,10,14]tetraazacycloheptadecino[17,16-c]quinoline]-3′-carboxamide], the EC50 worked out at 0.776 µM and the maximal effect (Emax) was 237%.
For `CC(C)C[C@H]1C(=O)N(C)C2(CC2)C(=O)N[C@H](Cc2ccccc2)COc2cnc3ccccc3c2C(=O)N[C@H](C(=O)NCCc2cc(C3CC3)on2)CC(=O)N1C` [Example 118, (3′S,7′S,13′R)-13′-benzyl-N-(2-(5-cyclopropylisoxazol-3-yl)ethyl)-7′-isobutyl-6′,9′-dimethyl-1′,5′,8′,11′-tetraoxo-2′,3′,4′,5′,6′,7′,8′,9′,11′,12′,13′,14′-dodecahydro-1′H-spiro[cyclopropane-1,10′-[1]oxa[4,7,10,14]tetraazacycloheptadecino[17,16-c]quinoline]-3′-carboxamide] the same measures were 0.329 µM and 265%.
For `CC(C)C[C@H]1C(=O)N(C)C2(CC2)C(=O)N[C@H](Cc2ccccc2)COc2cnc3ccccc3c2C(=O)N[C@H](C(=O)NCCc2cc(C(C)(C)C)on2)CC(=O)N1C` [Example 119, (3′S,7′S,13′R)-13′-benzyl-N-(2-(5-(tert-butyl)isoxazol-3-yl)ethyl)-7′-isobutyl-6′,9′-dimethyl-1′,5′,8′,11′-tetraoxo-2′,3′,4′,5′,6′,7′,8′,9′,11′,12′,13′,14′-dodecahydro-1′H-spiro[cyclopropane-1,10′-[1]oxa[4,7,10,14]tetraazacycloheptadecino[17,16-c]quinoline]-3′-carboxamide] the same measures were 0.328 µM and 248%.
